Columns and labels:
hERG channel = hERG channel (Homo sapiens (Human), UniProt Q12809); test: Test 6-1: inhibitory activity for hERG channel (auto patch clamp, Qpatch); type: cell-based; settings: whole cell auto patch clamp, hERG-CHO cells; read-out: hERG inhibition IC50
Procedure, shortened: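 Whole-cell patch clamp on an automated system using CHO cells stably expressing human hERG (IKr); 15 s pulse interval. Four increasing compound concentrations applied cumulatively; mean peak tail current from last 3 stimulations per concentration used. IC50 from inhibition versus pre-compound current, fitted by Hill equation.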

human 5-HT2A receptor [1] = molecular target: T1, human 5-HT2A receptor (Homo sapiens (Human), UniProt P28223); test: Test 1: binding activity for human 5-HT2A receptor ([3H]Ketanserin, CHO cell membrane fraction)
Procedure: Test 1: Evaluation of Binding Activity for Human 5-HT1A Receptor, Human 5-HT2A Receptor, and Human D2 Receptor
Binding affinity of the present compound for human 5-HT1A receptor, human 5-HT2A receptor, and human D2 receptor was measured by the following procedures.
Each mixture was incubated at room temperature for 60 minutes. Then, the mixture was added quickly on a glassfiber filter plate (Multiscreen FB, Millipore, Inc.) coated with 0.3% aqueous polyethylenimine, and vacuum-filtered. Radioactivity remaining on the filter was measured with a liquid scintillation counter (PerkinElmer, Inc.). Binding inhibition rate was calculated from the following formula.
Ki of each compound was calculated from the following formula. Binding inhibition constant (Ki)=IC50/(1+S/Kd) wherein S is concentration of ligand; Kd is a binding dissociation constant of ligand to membrane, which is calculated from a saturated binding experiment conducted with the same cell membrane. A small Ki value means strong binding ability to a receptor.

human 5-HT1A receptor [2] = molecular target: T2, human 5-HT1A receptor (Homo sapiens (Human), UniProt P08908); test: Test 2: agonist activity for human 5-HT1A receptor ([35S]GTPγS binding); type: biochemical; settings: for Emax at 10 µM: agonist activity in the presence of 10 μM of compound, relative to 100 μmol/L 5-HT; for EC50: [35S]GTPγS binding, concentration at which half the activity of Emax was obtained
Procedure, shortened: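 [35S]GTPγS binding read-out: after 60 min at room temperature with test compound in GDP buffer, human 5-HT1A receptor CHO membranes were vacuum-filtered and retained radioactivity scintillation-counted. Agonist activity calculated by formula.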

[3] = Test 4: metabolic stability test in human hepatic microsome; type: in vitro ADME; settings: 0.1 mg/mL microsome, 0.1 μmol/L compound, 37° C., 30 minutes
Procedure, shortened: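 LC-MS quantified remaining parent after 30 min, 37° C, in pH 7.4 25 mmol/L phosphate containing 0.1 mg/mL human hepatic microsomes, 3.2 mmol/L NADPH and 0.1 μmol/L test compound. Value given as −LN(residual ratio)/30/0.1, mL/min/mg protein.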

human 5-HT2A receptor [4] = molecular target: T1, human 5-HT2A receptor; test: Test 3: antagonist activity for human 5-HT2A receptor (aequorin luminescence, CHO-K1 cells); type: cell-based; settings: CHO-K1 cells, 1 nmol/L 5-HT
Procedure: Test 3: Evaluation of Antagonist Activity for Human 5-HT2A Receptor
Aequorin, Gα16 protein, and each receptor were transiently expressed in CHO-K1 cells (Chinese hamster ovary). […] Each compound dissolved in DMSO was added thereto, and changes in luminescence were measured by FDSS/μCELL functional drug screening system (Hamamatsu Photonics K.K.). Antagonist activity was calculated from the following formula. Antagonist activity (%)=100×{(Luminescence of well in the presence of 1 nmol/L 5-HT−Luminescence of well containing solvent)−(Luminescence of well in the presence of test compound and 1 nmol/L 5-HT−Luminescence of well containing solvent)}/(Luminescence of well in the presence of 1 nmol/L 5-HT−Luminescence of well containing solvent)

human 5-HT1A receptor [5] = molecular target: T2, human 5-HT1A receptor; test: Test 1: binding activity for human 5-HT1A receptor ([3H]8-OH-DPAT, CHO cell membrane fraction)
Procedure, shortened: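 Membranes incubated with [3H]8-OH-DPAT and compound for 60 min at room temperature, then filtered on polyethylenimine-coated glass-fibre plates and counted by liquid scintillation. IC50 from Hill analysis; Ki = IC50/(1+S/Kd), Kd from saturation binding on the same membranes.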

human D2 receptor = human D2 receptor (Homo sapiens (Human), UniProt P14416); test: Test 1: binding activity for human D2 receptor ([3H]Spiperone, CHO cell membrane fraction); settings: human D2 receptor, [3H]Spiperone
Procedure, shortened: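 Compound displacement of [3H]ketanserin at 5-HT2A or [3H]spiperone at D2 was measured in CHO membrane fractions after 60 min at room temperature, with filtration and scintillation counting. IC50 was converted to Ki by Cheng–Prusoff using ligand concentration and Kd from saturation binding.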

Sequence of human D2 receptor (P14416 whole entry): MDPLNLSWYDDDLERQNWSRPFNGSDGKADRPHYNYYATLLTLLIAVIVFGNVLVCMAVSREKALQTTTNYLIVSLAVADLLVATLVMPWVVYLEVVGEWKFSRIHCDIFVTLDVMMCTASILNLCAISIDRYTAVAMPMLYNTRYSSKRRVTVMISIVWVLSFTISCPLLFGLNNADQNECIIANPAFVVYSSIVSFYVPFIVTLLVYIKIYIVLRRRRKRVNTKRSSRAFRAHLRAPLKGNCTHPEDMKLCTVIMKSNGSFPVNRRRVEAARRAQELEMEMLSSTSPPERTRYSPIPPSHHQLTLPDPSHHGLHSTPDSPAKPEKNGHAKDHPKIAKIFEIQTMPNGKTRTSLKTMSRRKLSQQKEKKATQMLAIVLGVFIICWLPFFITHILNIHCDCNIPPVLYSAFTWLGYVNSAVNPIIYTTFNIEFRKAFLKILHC
T1 sequence (P28223 whole entry): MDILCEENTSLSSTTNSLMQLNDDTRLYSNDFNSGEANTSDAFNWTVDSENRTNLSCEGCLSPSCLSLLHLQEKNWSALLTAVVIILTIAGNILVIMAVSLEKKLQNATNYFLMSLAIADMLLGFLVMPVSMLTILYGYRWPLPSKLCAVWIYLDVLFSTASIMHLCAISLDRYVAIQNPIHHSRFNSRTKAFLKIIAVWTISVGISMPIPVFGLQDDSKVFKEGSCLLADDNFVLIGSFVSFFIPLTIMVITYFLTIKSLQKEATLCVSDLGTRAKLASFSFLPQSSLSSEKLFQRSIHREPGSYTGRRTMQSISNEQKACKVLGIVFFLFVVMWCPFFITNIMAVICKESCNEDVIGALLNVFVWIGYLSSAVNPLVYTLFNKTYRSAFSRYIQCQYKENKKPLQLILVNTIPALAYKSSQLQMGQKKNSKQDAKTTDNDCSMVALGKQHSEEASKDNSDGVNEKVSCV
Sequence of hERG channel (Q12809 whole entry): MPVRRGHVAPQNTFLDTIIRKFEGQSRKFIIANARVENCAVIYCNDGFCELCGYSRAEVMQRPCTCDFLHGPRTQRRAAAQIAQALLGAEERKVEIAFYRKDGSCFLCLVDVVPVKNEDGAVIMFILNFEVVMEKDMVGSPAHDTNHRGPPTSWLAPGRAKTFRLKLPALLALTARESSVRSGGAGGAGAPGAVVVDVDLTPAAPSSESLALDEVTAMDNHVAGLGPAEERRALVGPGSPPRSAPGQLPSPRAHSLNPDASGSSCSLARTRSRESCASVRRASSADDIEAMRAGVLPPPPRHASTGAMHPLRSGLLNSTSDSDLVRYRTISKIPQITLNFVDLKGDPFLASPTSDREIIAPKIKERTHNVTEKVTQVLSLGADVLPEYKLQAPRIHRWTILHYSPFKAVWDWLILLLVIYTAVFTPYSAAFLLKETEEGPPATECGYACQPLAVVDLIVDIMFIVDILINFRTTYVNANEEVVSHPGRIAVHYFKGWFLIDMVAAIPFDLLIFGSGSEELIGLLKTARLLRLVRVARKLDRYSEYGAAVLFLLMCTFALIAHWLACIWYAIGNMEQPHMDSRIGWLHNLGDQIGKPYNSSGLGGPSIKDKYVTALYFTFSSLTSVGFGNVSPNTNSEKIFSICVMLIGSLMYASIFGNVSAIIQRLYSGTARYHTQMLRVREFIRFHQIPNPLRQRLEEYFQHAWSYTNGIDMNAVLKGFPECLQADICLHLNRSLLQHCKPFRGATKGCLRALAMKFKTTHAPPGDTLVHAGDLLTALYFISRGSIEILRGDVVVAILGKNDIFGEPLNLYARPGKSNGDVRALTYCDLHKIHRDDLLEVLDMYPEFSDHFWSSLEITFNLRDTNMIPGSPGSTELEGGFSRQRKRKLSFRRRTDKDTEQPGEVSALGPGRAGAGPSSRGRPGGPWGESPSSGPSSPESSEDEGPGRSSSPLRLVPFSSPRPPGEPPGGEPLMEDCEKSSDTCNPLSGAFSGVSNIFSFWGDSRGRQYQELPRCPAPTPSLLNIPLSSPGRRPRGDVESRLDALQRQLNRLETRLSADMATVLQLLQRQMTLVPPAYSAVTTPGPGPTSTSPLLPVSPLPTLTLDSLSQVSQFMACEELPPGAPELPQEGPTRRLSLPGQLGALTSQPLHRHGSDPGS
T2 sequence (P08908 whole entry): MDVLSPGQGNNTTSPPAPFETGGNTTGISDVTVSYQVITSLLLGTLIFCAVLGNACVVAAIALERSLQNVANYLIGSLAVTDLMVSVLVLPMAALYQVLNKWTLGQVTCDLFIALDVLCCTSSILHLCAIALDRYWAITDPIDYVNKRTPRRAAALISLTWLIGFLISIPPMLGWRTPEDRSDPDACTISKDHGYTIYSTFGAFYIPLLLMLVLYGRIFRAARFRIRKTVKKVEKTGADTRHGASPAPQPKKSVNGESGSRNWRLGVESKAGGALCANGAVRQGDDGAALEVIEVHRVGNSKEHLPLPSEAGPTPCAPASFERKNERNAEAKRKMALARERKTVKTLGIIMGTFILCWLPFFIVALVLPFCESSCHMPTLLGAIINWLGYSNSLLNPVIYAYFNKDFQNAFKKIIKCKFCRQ

| Ki (human 5-HT1A receptor [5]) | EC50 (human 5-HT1A receptor [2]) | Ki (human D2 receptor) | SMILES | IC50 (hERG channel) | Ki (human 5-HT2A receptor [1]) | Emax at 10 µM (human 5-HT1A receptor [2]) | Metabolic stability in human hepatic microsome [3] | IC50 (human 5-HT2A receptor [4]) | IC50 (human 5-HT2A receptor [4]; aequorin luminescence) |
| --- | --- | --- | --- | --- | --- | --- | --- | --- | --- |
| – | – | – | O=C1c2ncccc2CCN1CCN1CCC(c2nsc3ccccc23)CC1 [Example 26] | 800 nM | 1.92 nM | 50% | <0.01 mL/min/mg protein | 4.49 nM | – |
| – | – | – | Cc1noc2ccn(CCN3CCN(c4nsc5ccccc45)CC3)c(=O)c12 [Example 53] | 5800 nM | – | 72% | 0.436 mL/min/mg protein | 8.03 nM | – |
| – | – | – | O=C1c2cncnc2CCN1CCN1CCC(c2noc3ccccc23)CC1 [Example 57] | 2200 nM | 7.6 nM | 61% | 0.013 mL/min/mg protein | 76.7 nM | – |
| – | – | – | O=C1c2ncccc2CCN1CCN1CCN(c2nsc3ccccc23)CC1 [Example 7] | 5200 nM | 2.63 nM | 55% | 0.041 mL/min/mg protein | 7.83 nM | – |
| – | – | – | Cn1cc2c(n1)CCN(CCN1CCN(c3noc4ccccc34)CC1)C2=O [Example 81] | > 10000 nM | 10 nM | 60% | <0.01 mL/min/mg protein | 83 nM | – |
| – | – | – | O=c1c2cnccc2ccn1CCN1CCC(c2noc3ccccc23)CC1 [Example 13] | – | 8.4 nM | – | <0.01 mL/min/mg protein | 71 nM | – |
| – | – | – | Cc1cc2c(C3CCN(CCN4CCc5cccnc5C4=O)CC3)noc2cc1F [Example 6] | 2200 nM | 68 nM | 31% | 0.061 mL/min/mg protein | 651 nM | – |
| – | – | – | Cc1ccc2c(n1)C(=O)N(CCN1CCC(c3noc4ccccc34)CC1)CC2 [Example 184] | 800 nM | 27 nM | 59% | <0.05 mL/min/mg protein | – | 95.5 nM |
| – | – | – | O=C1c2ncccc2CCC1CCN1CCN(c2noc3ccccc23)CC1 (stereo not drawn) [Example 23] | 1900 nM | 6 nM | 55% | 0.109 mL/min/mg protein | 7.29 nM | – |
| – | – | – | Cc1noc2c1C(=O)N(CCN1CCN(c3nsc4ccccc34)CC1)CCC2 [Example 40] | 1800 nM | 4.86 nM | 60% | 0.278 mL/min/mg protein | 8.7 nM | – |
| – | – | – | Cc1nc2c(o1)C(=O)N(CCN1CCN(c3nsc4ccccc34)CC1)CCC2 [Example 46] | 3700 nM | 2.8 nM | 58% | 0.018 mL/min/mg protein | 52 nM | – |
| – | – | – | Cc1cc2c(cn1)C(=O)N(CCN1CCN(c3nsc4ccccc34)CC1)CC2 [Example 108, 2-{2-[4-(1,2-Benzoisothiazol-3-yl)piperazin-1-yl]ethyl}-6-methyl-3,4-dihydro-2,7-naphthyridin-1(2H)-one] | 2800 nM | – | 71% | 0.119 mL/min/mg protein | 7.5 nM | – |
| – | – | – | O=C1c2ncccc2CCN1CCN1CCC(c2noc3cc(F)ccc23)CC1 [Example 125] | < 300 nM | 0.27 nM | – | <0.05 mL/min/mg protein | – | 7.15 nM |
| – | – | – | O=C1c2ncccc2CCN1CCN1CCN(c2noc3cc(Cl)ccc23)CC1 [Example 124] | – | 77 nM | – | – | – | 120 nM |
| – | – | – | Cn1ncc2c1CCCC(CCN1CCN(c3nsc4ccccc34)CC1)C2=O (stereo not drawn) [Example 31] | 1200 nM | 0.47 nM | 40% | 0.305 mL/min/mg protein | 2.71 nM | – |
| – | – | – | CCc1nc2c(o1)C(=O)N(CCN1CCC(c3noc4ccccc34)CC1)CC2 [Example 72] | – | 7.8 nM | – | – | 72 nM | – |
| – | – | – | O=C1c2cccnc2CCN1CCN1CCN(c2nsc3ccccc23)CC1 [Example 9] | 2300 nM | 2.24 nM | 43% | 0.100 mL/min/mg protein | – | – |
| – | – | – | O=C1c2ncccc2CCN1CCN1CCC(c2noc3cc(F)ccc23)CC1 [Example 4] | 400 nM | 2.4 nM | – | 0.011 mL/min/mg protein | 9.95 nM | – |
| – | – | – | Cc1cc2c(cn1)C(=O)N(CCN1CC=C(c3noc4ccccc34)CC1)CC2 [Example 152] | – | 11.4 nM | – | – | – | 82.7 nM |
| 6.5 nM | 16 nM | 791 nM | Cn1ncc2c1CCN(CCN1CCN(c3nsc4ccccc34)CC1)C2=O [Example 63] | 7800 nM | – | 73% | <0.01 mL/min/mg protein | – | – |
| 5.78 nM | 91.6 nM | 7830 nM | O=C1c2ncccc2CCN1CCN1CCC(c2noc3ccc(F)cc23)CC1 [Example 5] | 2400 nM | – | 60% | <0.01 mL/min/mg protein | – | – |
| 0.84 nM | 9.06 nM | 1860 nM | Cc1nc2c(o1)CCN(CCN1CCC(c3noc4ccccc34)CC1)C2=O [Example 39] | 1800 nM | – | 61% | 0.016 mL/min/mg protein | – | – |
| 0.51 nM | 7.32 nM | 1560 nM | CC1CN(CCN2CCC(c3noc4ccccc34)CC2)C(=O)c2ncccc21 (stereo not drawn) [Example 15] | 1600 nM | – | 57% | 0.055 mL/min/mg protein | – | – |
| 1.7 nM | 9.8 nM | 134 nM | Cn1ccc2c1CCN(CCN1CCN(c3nsc4ccccc34)CC1)C2=O [Example 61] | > 10000 nM | – | 63% | 0.056 mL/min/mg protein | – | – |
| 23.8 nM | 841 nM | 541 nM | Cn1ncc2c1CCN(CCN1CCC(c3noc4ccccc34)CC1)C2=O [Example 130] | 1600 nM | – | 44% | <0.05 mL/min/mg protein | – | – |
| 14 nM | 74.2 nM | 114 nM | Cn1ncc2c1C(=O)N(CCN1CCC(c3noc4ccccc34)CC1)CCC2 [Example 155] | 700 nM | – | 63% | 0.121 mL/min/mg protein | – | – |
| 2.39 nM | 7.13 nM | 210 nM | O=C1c2cn(C3CC3)nc2CCN1CCN1CCN(c2nsc3ccccc23)CC1 [Example 75] | 1200 nM | – | 56% | 0.174 mL/min/mg protein | – | – |

| SMILES | Ki (human 5-HT1A receptor [5]) | EC50 (human 5-HT1A receptor [2]) | Ki (human D2 receptor) | IC50 (hERG channel) | Ki (human 5-HT2A receptor [1]) | Emax at 10 µM (human 5-HT1A receptor [2]) | Metabolic stability in human hepatic microsome [3] | IC50 (human 5-HT2A receptor [4]) | IC50 (human 5-HT2A receptor [4]; aequorin luminescence) |
| --- | --- | --- | --- | --- | --- | --- | --- | --- | --- |
| O=C1c2c(Br)nn(Br)c2CCN1CCN1CCN(c2nsc3ccccc23)CC1 [Example 69] | 10.4 nM | 33.9 nM | 360 nM | – | 1 nM | 45% | – | – | – |
| O=C1c2ncccc2CCN1CCN1CCN(c2noc3cc(F)ccc23)CC1 [Example 123] | 162 nM | 186 nM | – | 3900 nM | – | 71% | <0.05 mL/min/mg protein | – | 22.9 nM |
| Cc1nc2c(o1)C(=O)N(CCN1CCN(c3noc4ccccc34)CC1)CC2 [Example 178] | – | – | > 10000 nM | – | 179 nM | – | – | – | 2020 nM |
